In patent US9340577B2, “HLA binding motifs and peptides and their uses” (priority 1992, dated 2016):
No end group written: not given here.

Columns and labels:
Test in all cases: biochemical
Assay type in all cases: binding
[1] = target: A*3002 (Homo sapiens, UniProt P04439, D101N/D140H/D185E/E176R/F33S/G80R/H175R/K168Q/Q94H/R138E/R41S/V100E)
[2] = target: A*2601 (Homo sapiens, UniProt P04439, A114D/A173T/A270S/D101N/D185E/E277Q/E87N/F33Y/G231S/I121R/I218V/K168Q/L180W/L300P/L318F/P208A/P217A/Q86R/Q94H/R138Q/S129P/T187R/T323A/T345S/V100A/V358M)
[3] = target: A*2902 (Homo sapiens, UniProt P04439, A270S/D101N/D185E/E176V/E277Q/E87Q/F33T/G231S/H175R/I121M/I218V/I322F/K168Q/L300P/L318F/M331R/P208A/P217A/Q86L/T323A/T345S/V100A/V358M)
[4] = target: HLA-A1 (A*0101) (Homo sapiens, UniProt P04439, A114D/A174V/A182V/D101N/D185E/E176A/E190D/L180R/Q94H/R68K/S129P/T187R/V100A/V91M/W191G)

Chain of A*3002 (P04439 whole entry, looked up, the tested form may be a part, stated change not applied): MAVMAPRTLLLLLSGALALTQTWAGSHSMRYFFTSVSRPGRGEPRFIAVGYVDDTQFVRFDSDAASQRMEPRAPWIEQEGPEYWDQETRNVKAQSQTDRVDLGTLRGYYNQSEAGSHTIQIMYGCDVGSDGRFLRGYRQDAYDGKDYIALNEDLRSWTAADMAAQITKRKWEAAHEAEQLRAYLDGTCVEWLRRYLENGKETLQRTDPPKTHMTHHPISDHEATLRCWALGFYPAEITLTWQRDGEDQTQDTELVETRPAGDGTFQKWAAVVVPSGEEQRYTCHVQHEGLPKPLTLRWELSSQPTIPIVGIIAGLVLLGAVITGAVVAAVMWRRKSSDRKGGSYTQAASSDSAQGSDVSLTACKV

Sequence	IC50 [1] [nM]	IC50 [2] [nM]	IC50 [3] [nM]	IC50 [4] [nM]
DTADQLIHLY [Peptide 9018.0021]	13	3.2	30	3.6
ETPGIRYQY [Peptide 9015.0017]	2300	25	> 20000	9210
VSRRANGWFY [Peptide 9015.0179]	5.2	> 20000	5580	
YTDGPGVRY [Peptide 9018.0003]	45	152	39	2.1
YTPGPGTRY [Peptide 9015.0027]	9150	11	1280	
VSIEWRQRRY [Peptide 9015.0182]	65	1990	13900	7930
SIDWRQRRY [Peptide 9018.0018]	3.5	236	561	43
VTIEWRLRRY [Peptide 9018.0015]	3.5	33	123	19
ETWETWWTDY [Peptide 9015.0169]	8650	2.3	11800	955
SFEPIPIHY [Peptide 9015.0001]	191	953	9.4	> 20000
KSLVKHHMY [Peptide 9015.0034]	7.7	> 20000	2790	10500
HYARELHPEY [Peptide 9018.0035]	104	> 20000	928	> 20000
RTKNPEIVIY [Peptide 9015.0164]	12	> 20000	> 20000	> 20000
VMDDSEIAY [Peptide 1580.07]	2550	> 20000	95	
LTDDSDIAY [Peptide 1580.11]	5440	3920	4770	
VSRDAKGWFY [Peptide 9018.0014]	3.4	64	17	14
QTDYYGLYY [Peptide 1593.06]	674	122	38	1.3
GTEELRSLY [Peptide 9015.0010]	51	666	4830	
YTDGPGTRY [Peptide 9018.0002]	63	28	65	0.39
ITDDSDIAY [Peptide 1580.14]	3150	7470	2100	4.2
ETKLGKAGY [Peptide 9015.0023]	3900	21	> 20000	> 20000
QTRVLAIERY [Peptide 9015.0156]	67	3310	4180	6420
ISNYTDTIY [Peptide 9015.0007]	36	6100	141	104
ISWTYIDDY [Peptide 86.0135]	9.4	> 20000	2490	
VSDEWRLRRY [Peptide 9018.0016]	47	4320	2580	62
VSDRANGWFY [Peptide 9018.0012]	18	191	932	4.3
STDAALYWY [Peptide 1593.02]	68	24	26	2.6

Sequence	IC50 [1] [nM]	IC50 [2] [nM]	IC50 [3] [nM]	IC50 [4] [nM]
ETKKGKAGY [Peptide 9015.0024]	2100	15	> 20000	> 20000
ITDDSEIAY [Peptide 1593.04]	3100	7370	1440	20
NSLVKHHMY [Peptide 9015.0033]	451	> 20000	326	2030
TWETWWTDY [Peptide 9015.0019]	6310	3300	137	> 20000
LFDQLIHMYY [Peptide 9018.0030]	65	2410	12	
ETWETWWMDY [Peptide 9015.0168]	601	2.9	5120	91
DLDDQLIHLY [Peptide 9018.0022]	2.7	38	3.7	4.9
STEWRLRRY [Peptide 9018.0019]	6.6	320	271	52
YTPGPGVRY [Peptide 9015.0026]	7640	27	1350	
LMWKFDSSL [Peptide 1605.16]	348	> 20000	2050	> 20000
LSEMVQWAY [Peptide 1580.10]		> 20000	633	6.9
FGEMVQWAY [Peptide 1580.13]	249	> 20000	81	318
VSIEWRLRRY [Peptide 9015.0181]	55	363	2490	4630
EISNYTDIIY [Peptide 9015.0158]	2900	59	> 20000	6020
ISERILSTY [Peptide 1522.03]		4100	> 20000	31
MSMSQWIKY [Peptide 1580.05]	1.8	158	7.7	229
LTDDSDIAYY [Peptide 1580.12]	293	738	3980	6.4
HMDRELHPEY [Peptide 9018.0005]	3.6	6.8	13	5.1
LTDQLIHLY [Peptide 9018.0026]	2.6	432	178	0.53
NTPPLVKLWY [Peptide 9015.0170]	9350	199	2650	18400
LADQLIHLY [Peptide 9015.0038]	96	6090	1330	4
DLADQLIHLY [Peptide 9015.0184]		6.2	9790	958
HMDREKHPEY [Peptide 9018.0007]	648	2760	> 20000	24
LSDLQDSGY [Peptide 1580.15]	4030	> 20000	> 20000	1.7
NTLVKHHMY [Peptide 9018.0009]	69	7370	45	363
KSDIVTLTY [Peptide 1593.07]		> 20000	3170	62
SFDPIPIHY [Peptide 9015.0002]		2650	27	315
